Measured values: ChEMBL document CHEMBL4152336, “Optimization of the first small-molecule relaxin/insulin-like family peptide receptor (RXFP1) agonists: Activation results in an antifibrotic gene expression profile” (Eur J Med Chem, 2018)
Activity calls are given as the source filed them. The calls are words filed in the database; no cut-off is given here.

Tests used:
[1] = Drug level in C57/BL6 mouse heart at 30 mg/kg, po after 3 hrs; format: ADME, organism-based; conditions: in vivo
[2] = Drug level in C57/BL6 mouse heart at 30 mg/kg, po after 5 hrs; format: ADME, organism-based; conditions: in vivo
Mus musculus [3] = assay: Toxicity in C57/BL6 mouse assessed as abnormal behavior at 3 to 30 mg/kg, iv; format: organism-based; conditions: in vivo
Mus musculus [4] = assay: Toxicity in C57/BL6 mouse assessed as body weight at 3000 mg/kg, po treated for 5 days measured at day 8 post last dose (reference value: 20.6 +/- 2.8 g); format: organism-based; conditions: in vivo, 120 h
Mus musculus [5] = assay: Toxicity in C57/BL6 mouse assessed as body weight at 3000 mg/kg, po treated for 5 days measured at day 6 post last dose (reference value: 20.6 +/- 2.6 g); format: organism-based; conditions: in vivo, 120 h
Mus musculus [6] = assay: Toxicity in C57/BL6 mouse assessed as body weight at 90 mg/kg, po treated for 5 days measured at day 4 post last dose (reference value: 20.1 +/- 2.8 g); format: organism-based; conditions: in vivo, 120 h
Mus musculus [7] = assay: Toxicity in C57/BL6 mouse assessed as body weight at 3000 mg/kg, po treated for 5 days measured at day 4 post last dose (reference value: 20.1 +/- 2.8 g); format: organism-based; conditions: in vivo, 120 h
[8] = Drug level in C57/BL6 mouse heart at 30 mg/kg, po after 1.5 hr; format: ADME, organism-based; conditions: in vivo
Mus musculus [9] = assay: Toxicity in C57/BL6 mouse assessed as body weight at 90 mg/kg, po treated for 5 days measured at day 10 post last dose (reference value: 20.7 +/- 2.6 g); format: organism-based; conditions: in vivo, 120 h
Mus musculus [10] = assay: Toxicity in C57/BL6 mouse assessed as body weight at 300 mg/kg, po treated for 5 days measured at day 5 post last dose (reference value: 20.3 +/- 2.8 g); format: organism-based; conditions: in vivo, 120 h
[11] = Drug level in C57/BL6 mouse heart at 30 mg/kg, po after 0.5 hrs; format: ADME, organism-based; conditions: in vivo
[12] = Drug level in C57/BL6 mouse heart at 3 mg/kg, iv after 24 hrs; format: ADME, organism-based; conditions: in vivo
Mus musculus [13] = assay: Toxicity in C57/BL6 mouse assessed as mouse death at 90 to 3000 mg/kg, po treated for 5 days measured at day 5 post last dose; format: organism-based; conditions: in vivo, 120 h
[14] = Drug level in C57/BL6 mouse heart at 30 mg/kg, po after 2 hrs; format: ADME, organism-based; conditions: in vivo
Homo sapiens [15] = species on record: Homo sapiens; assay: Down regulation of CTGF gene expression in human HSC at 5 uM after 24 to 72 hrs by RT-qPCR analysis; format: functional
Mus musculus [16] = assay: Toxicity in C57/BL6 mouse assessed as body weight at 3000 mg/kg, po treated for 5 days measured at day 1 post last dose (reference value: 20.3 +/- 2.6 g); format: organism-based; conditions: in vivo, 120 h
Homo sapiens [17] = species on record: Homo sapiens; assay: Upregulation of PPARGC1A gene expression in human HSC at 5 uM after 24 to 72 hrs by RT-qPCR analysis; format: functional
Mus musculus [18] = assay: Toxicity in C57/BL6 mouse assessed as abnormal behavior at 3 to 30 mg/kg, po; format: organism-based; conditions: in vivo
Mus musculus [19] = assay: Toxicity in C57/BL6 mouse assessed as body weight at 90 mg/kg, po treated for 5 days measured at day 6 post last dose (reference value: 20.6 +/- 2.6 g); format: organism-based; conditions: in vivo, 120 h
Mus musculus [20] = assay: Toxicity in C57/BL6 mouse assessed as body weight at 3000 mg/kg, po treated for 5 days measured at day 10 post last dose (reference value: 20.7 +/- 2.6 g); format: organism-based; conditions: in vivo, 120 h
Mus musculus [21] = assay: Toxicity in C57/BL6 mouse assessed as body weight at 90 mg/kg, po treated for 5 days measured at day 5 post last dose (reference value: 20.3 +/- 2.8 g); format: organism-based; conditions: in vivo, 120 h
Mus musculus [22] = assay: Toxicity in C57/BL6 mouse assessed as body weight at 3000 mg/kg, po treated for 5 days measured at day 7 post last dose (reference value: 20.6 +/- 2.9 g); format: organism-based; conditions: in vivo, 120 h
[23] = Drug level in C57/BL6 mouse heart at 3 mg/kg, iv after 1 hr; format: ADME, organism-based; conditions: in vivo
Mus musculus [24] = assay: Toxicity in C57/BL6 mouse assessed as body weight at 90 mg/kg, po treated for 5 days measured at day 1 post last dose (reference value: 20.3 +/- 2.6 g); format: organism-based; conditions: in vivo, 120 h
[25] = Drug level in C57/BL6 mouse heart at 30 mg/kg, po after 24 hrs; format: ADME, organism-based; conditions: in vivo, BLD = below limit of detection
Mus musculus [26] = assay: Toxicity in C57/BL6 mouse assessed as body weight at 300 mg/kg, po treated for 5 days measured at day 3 post last dose (reference value: 19.8 +/- 2.5 g); format: organism-based; conditions: in vivo, 120 h
Mus musculus [27] = assay: Toxicity in C57/BL6 mouse assessed as body weight at 3000 mg/kg, po treated for 5 days measured at day 3 post last dose (reference value: 19.8 +/- 2.5 g); format: organism-based; conditions: in vivo, 120 h
Mus musculus [28] = assay: Toxicity in C57/BL6 mouse assessed as body weight at 3000 mg/kg, po treated for 5 days measured at day 5 post last dose (reference value: 20.3 +/- 2.8 g); format: organism-based; conditions: in vivo, 120 h
Mus musculus [29] = assay: Toxicity in C57/BL6 mouse assessed as body weight at 300 mg/kg, po treated for 5 days measured at day 6 post last dose (reference value: 20.6 +/- 2.6 g); format: organism-based; conditions: in vivo, 120 h
[30] = Drug level in C57/BL6 mouse heart at 3 mg/kg, iv after 0.5 hrs; format: ADME, organism-based; conditions: in vivo
Mus musculus [31] = assay: Toxicity in C57/BL6 mouse assessed as body weight at 90 mg/kg, po treated for 5 days measured at day 7 post last dose (reference value: 20.6 +/- 2.9 g); format: organism-based; conditions: in vivo, 120 h
Mus musculus [32] = assay: Toxicity in C57/BL6 mouse at 3 to 30 mg/kg, po; format: organism-based; conditions: in vivo
Mus musculus [33] = assay: Toxicity in C57/BL6 mouse assessed as body weight at 300 mg/kg, po treated for 5 days measured at day 4 post last dose (reference value: 20.1 +/- 2.8 g); format: organism-based; conditions: in vivo, 120 h
[34] = Drug level in C57/BL6 mouse heart at 3 mg/kg, iv after 2 hrs; format: ADME, organism-based; conditions: in vivo
[35] = Drug level in C57/BL6 mouse heart at 30 mg/kg, po after 0.17 hrs; format: ADME, organism-based; conditions: in vivo
Homo sapiens [36] = species on record: Homo sapiens; assay: Down regulation of COL1A1 gene expression in human HSC at 5 uM after 24 to 72 hrs by RT-qPCR analysis; format: functional
[37] = Drug level in C57/BL6 mouse heart at 30 mg/kg, po after 1 hr; format: ADME, organism-based; conditions: in vivo
Mus musculus [38] = assay: Toxicity in C57/BL6 mouse assessed as body weight at 90 mg/kg, po treated for 5 days measured at day 8 post last dose (reference value: 20.6 +/- 2.8 g); format: organism-based; conditions: in vivo, 120 h
[39] = Drug level in C57/BL6 mouse heart at 3 mg/kg, iv after 0.25 hrs; format: ADME, organism-based; conditions: in vivo
[40] = Drug level in C57/BL6 mouse heart at 3 mg/kg, iv after 7 hrs; format: ADME, organism-based; conditions: in vivo
Mus musculus [41] = assay: Toxicity in C57/BL6 mouse assessed as body weight at 300 mg/kg, po treated for 5 days measured at day 10 post last dose (reference value: 20.7 +/- 2.6 g); format: organism-based; conditions: in vivo, 120 h
Mus musculus [42] = assay: Toxicity in C57/BL6 mouse assessed as body weight at 90 mg/kg, po treated for 5 days measured at day 3 post last dose (reference value: 19.8 +/- 2.5 g); format: organism-based; conditions: in vivo, 120 h

Question: What does the source list for `CC(C)Oc1ccccc1C(=O)Nc1ccccc1C(=O)Nc1cccc(S(=O)(=O)C(F)(F)F)c1`?
Answer: Drug uptake [1]: 0.995 µmol/kg; Drug uptake [2]: 0.256 µmol/kg; Activity (Mus musculus [3]): Non-Toxic; Activity (Mus musculus [4]): 21.1 g; Activity (Mus musculus [5]): 21.1 g; Activity (Mus musculus [6]): 20 g; Activity (Mus musculus [7]): 20.7 g; Drug uptake [8]: 2.026 µmol/kg; Activity (Mus musculus [9]): 20.8 g; Activity (Mus musculus [10]): 20.6 g; Drug uptake [11]: 1.428 µmol/kg; Drug uptake [12]: 0.109 µmol/kg; Activity (Mus musculus [13]): Non-Toxic; Drug uptake [14]: 1.016 µmol/kg; Activity (Homo sapiens [15]): Active; Activity (Mus musculus [16]): 20.6 g; Activity (Homo sapiens [17]): Active; Activity (Mus musculus [18]): Non-Toxic; Activity (Mus musculus [19]): 20.4 g; Activity (Mus musculus [20]): 21.3 g; Activity (Mus musculus [21]): 20 g; Activity (Mus musculus [22]): 21.2 g; Drug uptake [23]: 1.395 µmol/kg; Activity (Mus musculus [24]): 19.9 g; Drug uptake [25]: Bld; Activity (Mus musculus [26]): 20.4 g; Activity (Mus musculus [27]): 20.6 g; Activity (Mus musculus [28]): 20.8 g; Activity (Mus musculus [29]): 20.8 g; Drug uptake [30]: 2.001 µmol/kg; Activity (Mus musculus [31]): 20.4 g; Activity (Mus musculus [32]): Non-Toxic; Activity (Mus musculus [33]): 20.4 g; Drug uptake [34]: 1.206 µmol/kg; Drug uptake [35]: 0.926 µmol/kg; Activity (Homo sapiens [36]): Active; Drug uptake [37]: 1.041 µmol/kg; Activity (Mus musculus [38]): 20.6 g; Drug uptake [39]: 2.084 µmol/kg; Drug uptake [40]: 0.394 µmol/kg; Activity (Mus musculus [41]): 21.3 g; Activity (Mus musculus [42]): 19.9 g
